Test results published in US20210300900A1, “OGA INHIBITOR COMPOUNDS” (Janssen Pharmaceutica NV, priority 2018, published 2021).

Key:
[1] = biological target: T1, recombinant human Meningioma Expressed Antigen 5 (MGEA5), also referred to as O-GcNAcase (OGA) (Homo sapiens, UniProt O60502); assay: OGA biochemical assay (inhibition of FM-GlcNAc hydrolysis, fluorescence); details: FM-GlcNAc substrate; for Emax: read-out: Enzymatic Emax (%); for IC50: read-out: Enzymatic hOGA, pIC50 (converted)
T1 construct: Full length OGA enzyme was purchased at OnGene (cat #TP322411); purchased OnGene (so in the source)
T1 sequence (O60502 1-916): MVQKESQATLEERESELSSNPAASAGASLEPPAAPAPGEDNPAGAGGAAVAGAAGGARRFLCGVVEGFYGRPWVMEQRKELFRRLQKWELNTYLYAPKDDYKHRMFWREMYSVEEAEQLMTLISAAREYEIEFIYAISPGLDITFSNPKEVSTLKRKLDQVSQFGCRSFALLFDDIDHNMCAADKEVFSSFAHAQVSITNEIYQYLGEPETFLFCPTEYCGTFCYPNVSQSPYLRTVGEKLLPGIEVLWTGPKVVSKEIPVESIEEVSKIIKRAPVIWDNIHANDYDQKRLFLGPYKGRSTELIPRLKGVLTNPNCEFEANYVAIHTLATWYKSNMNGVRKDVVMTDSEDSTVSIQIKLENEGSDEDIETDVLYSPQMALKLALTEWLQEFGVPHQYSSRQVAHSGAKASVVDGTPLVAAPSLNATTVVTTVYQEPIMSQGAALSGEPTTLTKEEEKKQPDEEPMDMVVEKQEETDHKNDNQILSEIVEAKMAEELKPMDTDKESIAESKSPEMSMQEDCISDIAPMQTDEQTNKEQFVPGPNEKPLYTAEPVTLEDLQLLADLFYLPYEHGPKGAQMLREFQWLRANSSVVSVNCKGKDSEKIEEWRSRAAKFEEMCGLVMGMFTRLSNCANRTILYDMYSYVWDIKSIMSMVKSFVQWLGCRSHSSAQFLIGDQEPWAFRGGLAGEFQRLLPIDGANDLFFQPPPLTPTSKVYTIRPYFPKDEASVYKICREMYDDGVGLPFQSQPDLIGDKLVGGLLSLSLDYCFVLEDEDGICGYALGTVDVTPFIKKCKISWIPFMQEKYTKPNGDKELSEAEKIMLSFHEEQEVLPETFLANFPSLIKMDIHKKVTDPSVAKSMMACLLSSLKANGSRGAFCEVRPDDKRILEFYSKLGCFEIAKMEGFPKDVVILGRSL
Outline: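 Full-length recombinant human OGA (2 nM) pre-incubated 60 min with compound, then FM-GlcNAc (100 uM final) added in 200 mM citrate/phosphate pH 7.2 with 0.005% Tween-20; 6 h at room temperature, stopped with pH 11.0 carbonate. Fluorescein read at ex 485/em 538 nm; IC50 and Hill coefficient from curve fit against no-inhibitor and saturating-standard controls.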

[2] = biological target: T2, OGA (Homo sapiens, UniProt O60502); assay: OGA cellular assay (ICC detection of O-GlcNAcylated proteins in HEK293 cells inducible for P301L mutant human Tau); format: cell-based; details: 6 hours incubation; for Emax: HEK293, HEK293 cells inducible for P301L mutant human Tau, maximum = Thiamet G 200 uM; for EC50: HEK293 cells inducible for P301L mutant human Tau, read-out: Cellular hOGA, pEC50 (converted)
T2 construct: endogenous in cells; host or cells: HEK293 cells inducible for P301L mutant human Tau (isoform 2N4R)
T2 sequence (O60502 1-916): T1 sequence (O60502 1-916)
Outline: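 HEK293 cells inducible for P301L Tau (2N4R), seeded in low-glucose medium, treated 6 hours with compound (0.2% DMSO). O-GlcNAcylated proteins detected by CTD110.6 immunocytochemistry, imaged at 488 nm, nuclei counted with Hoechst; values from non-linear regression against 200 uM Thiamet G as maximum.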

| Structure (SMILES) | Emax [1] [%] | IC50 [1] [nM] | Emax [2] [%] | EC50 [2] [nM] | melting point [°C] |
| --- | --- | --- | --- | --- | --- |
| CC(=O)Nc1cnc(C(C)N2CCC[C@H](Cc3cc(C)nc(C)c3)C2)cn1 (stereo partly shown) [Product 64] | 95 | 692 | 26 | > 1000 | 211.6 |
| CC(=O)Nc1cc(C(C)N2CCCC(c3cc(C)nc(C)c3)C2)n[nH]1 (stereo not shown) [Product 72] | 97 | 457 | 31 | > 1000 | 184.68 |
| CC(=O)Nc1cc(C(C)N2CCCC(CNc3cc(C)nc(C(F)(F)F)c3)C2)[nH]n1 (stereo not shown) [Product 91] | 104 | 129 | – | – | 261.7 |
| CC(=O)Nc1ncc(CN2CCC[C@H](Cc3cc(C)nc(C)c3)C2)nc1C.Cl [Product 158] | 13 | > 10000 | – | – | 158.1 |
